Experimental data reported in patent US20230075822A1, “USE OF CASTALAGIN OR ANALOGS THEREOF FOR ANTI-CANCER EFFICACY AND TO INCREASE THE RESPONSE TO IMMUNE CHECKPOINT INHIBITORS” (THE ROYAL INSTITUTION FOR THE ADVANCEMENT OF …, priority 2020, published 2023).

How the values were obtained:
CD8^+ T cells = test: Flow cytometry immune profiling of tumor and spleen, E0771 tumor model; type: in vivo, C57BL/6 mice; settings: αPD-1 with or without treatment
Experimental: FIGS. 7A-C are graphs showing the results of immune cell profiling by flow cytometry in the murine MCA-205 (FIGS. 7A-B) or E0771 (FIG. 7C) tumor model treated with anti-PD-1 and/or CC. The tumors and the spleens were harvested 9 days or 19 days after the first injection of anti-PD-1 mAb into mice bearing MCA-205 or E0771 tumors, respectively. Excised tumors were cut into small pieces and digested in RPMI medium containing Liberase 25 μg/mL (Roche) and DNase1 at 150 Ul/mL (Roche) for 30 minutes at 37° C. and then crushed and filtered twice using 100 and 70 μm cell strainers (Becton & Dickinson). Spleens were crushed in RPMI medium and subsequently filtered through a 100 μm cell strainer. Two million tumor cells or splenocytes were pre-incubated with purified anti-mouse CD16/CD32 (clone 93; eBioscience) for 30 minutes at 4° C., before membrane staining (CD45, CD3, CD4, CD8, PD1, PDL1, ICOS, CXCR3, CCR9, CD45RB, CD62L, CD44). For intracellular staining, the Foxp3 staining kit (eBioscience) was used. Dead cells were excluded using the Live/Dead Fixable aqua blue dead cell stain kit (Life Technologies). […] FIG. 7C is a graph showing the activation of intratumoral CD8^+ T cells (as assessed by MFI of ICOS^+CD8^+ T cells by flow cytometry) in TILs in the E0771 tumor model post-treatment with CC +/-αPD-1. […]

Ruminococcaceae = test: qRT-PCR with Ruminococcaceae-specific primers on mouse feces; type: in vivo, mice; settings: 6 days of oral gavage, vs water
Experimental: FIG. 9J is a graph showing the effect of castalagin treatment (0 mg/kg, 1/4×, 0.21 mg/kg, 1×, 0.85 mg/kg, and 3×, 2.55 mg/kg) on the amount of Ruminococcaceae in the feces. Real-time PCR was performed on DNA extracted from mouse stools after 6 days of oral gavage with water or castalagin at 0.21 mg/kg, 0.85 mg/kg and 2.55 mg/kg using specific primers for Ruminococcaceae detection in MCA-205-bearing, SPF-reared mice (n=5). *p<0.05, **p<0.01.
FIG. 13 is a graph depicting the results of qPCR assays performed on DNA extracted from mouse stools after 6 days of oral gavage with water or castalagin at 0.85 mg/kg using specific primers for Ruminococcaceae detection in MCA-205—bearing, SPF-reared mice (n=10). *p<0.05,
Genomic DNA extraction from mouse feces. Total genomic DNA from fecal pellets was extracted using ZymoBIOMICS DNA Miniprep Kit (Zymo Research Corporation) and immediately stored at -80° C. This protocol involves a bead beating step to ensure full recovery of bacterial DNA. DNA concentration and quality were measured using the Nanodrop ND-1000 (ThermoFisher).
Quantitative real-time PCR (qRT-PCR). Quantitative real-time PCR was performed to evaluate the relative levels of the total bacterial DNA and the V6 region of the 16S rRNA gene was amplified using the primer set 891F (5′-[…]-3′, SEQ ID NO:1) and 1033R (5′-TGCGGGACTTAACCCAACA-3′, SEQ ID NO:2) (Anhê et al. Diabetologia. 2018 April; 61(4):919-931) and specifically to evaluate the relative levels of the Ruminococcaceae DNA using the specific primers F (5′-[…]-3′, SEQ ID NO:3) and R (5′-[…]-3′, SEQ ID NO:4) (Garcia-Mazcorro JF et al FEMS Microbiol Ecol 2012; 80(3):624-36). DNA (400ng/well) extracted was combined with 500 nM of the above described primer mix and 1× qPCRBIO SyGreen blue Mix Hi-ROX (PCRBIOSystems). The qPCR reaction was performed on the Applied Biosystems StepOnePlus Real-Time PCR System (ThermoFisher Scientific) at 95° C. for 3min to denature DNA, with amplification proceeding for 40 cycles at 95° C. for 5s, 60° C. for 30 s, and completed with a melt curve stage. Raw threshold cycle (Ct) values were compared to a bacterial standard curve produced with Escherichia coli DNA for the 16s analysis and with Ruminoccocus bicirculans for the Rumniccocaceae analysis for approximation of bacterial load.

O=C1OC[C@H]2OC(=O)c3cc(O)c(O)c(O)c3-c3c(O)c(O)c(O)c4c3C(=O)O[C@H]([C@H]3OC(=O)c5c-4c(O)c(O)c(O)c5[C@@H]3O)[C@@H]2OC(=O)c2cc(O)c(O)c(O)c2-c2c1cc(O)c(O)c2O [castalagin, Castalagin]
frequency of memory CD8^+ T cells (CD44^HighCD62L^−CD8^+) (CD8^+ T cells; splenocytes): increase in frequency of memory CD8^+ T cells
frequency of memory CD8^+ T cells (CD44^HighCD62L^−CD8^+) (CD8^+ T cells; tumor microenvironment): increase in frequency of memory CD8^+ T cells
Ruminococcaceae abundance (qRT-PCR) (Ruminococcaceae; 1/4 concentration dose (0.21 mg/kg)): not increase
Ruminococcaceae abundance (qRT-PCR), duplicated experiment (Ruminococcaceae; castalagin 0.85 mg/kg, n=10): increase of Ruminococcaceae
Ruminococcaceae abundance (qRT-PCR) (Ruminococcaceae; standard castalagin dose (0.85 mg/kg)): significantly increased
Ruminococcaceae abundance (qRT-PCR) (Ruminococcaceae; three-fold standard castalagin dose (2.55 mg/kg)): significantly increased
